Test results as given in publication PMC10374108, “Structural and biochemical characterization of the key components of an auxin degradation operon from the rhizosphere bacterium Variovorax” (PLOS Biology, 2023).
Values joined by “and” are separate entries in the source; they are usually repeats but may differ in a detail not shown here. Equal values may be shown once.

Key:
IadK3 = IadK3 (Variovorax paradoxus, UniProt A0A0H2LZ84); assay: ITC, auxins binding to IadK3; set-up: species or system Variovorax paradoxus CL14
Experimental: (§1) ITC experiments were performed using a MicroCal PEAQ-ITC system (Malvern). All the experiments were performed at […] in a buffer containing 25 mM Tris-HCl (pH 7.5) and 150 mM NaCl (unless otherwise stated). […] Data was analyzed using the MicroCal PEAQ-ITC analysis software. All the measurements were repeated at least 2 times.

IadG = assay: ITC, IAA binding to IadG; set-up: species or system Variovorax paradoxus CL14
Experimental: as §1

IadK2 mutants = assay: Thermal shift assay (TSA), IadK2 mutants and IAA; type: binding, Variovorax paradoxus CL14; set-up: unit not given here; details: replicates
Experimental: Ligands concentrations were tested at 2- to […] excess (10 to 1,000 μM) relative to the proteins (5 μM). The fluorescence dye SYPRO Orange at a final of 200-fold dilution was used to monitor the unfolding of proteins. The protein and ligand were incubated for 10 min at room temperature before the addition of SYPRO Orange dye. The QuantStudio 1 Plus real-time PCR system (Thermo Fisher) was used to control the temperature increasing from […] to […] with an increment of […] and to monitor the fluorescence (excitation: 520 ± 10 nm and emission: 558 ± 10 nm). Each tested group was run in triplicate and repeated. Data was imported to the Protein Thermal Shift software for analysis and plotting.

IadC = molecular target: T1, IadC (Variovorax paradoxus, UniProt C5CSP5); assay: In vitro IAA transformation assay, IadC alone; type: biochemical, Variovorax paradoxus CL14; details: result in words
T1 sequence (C5CSP5 1-330): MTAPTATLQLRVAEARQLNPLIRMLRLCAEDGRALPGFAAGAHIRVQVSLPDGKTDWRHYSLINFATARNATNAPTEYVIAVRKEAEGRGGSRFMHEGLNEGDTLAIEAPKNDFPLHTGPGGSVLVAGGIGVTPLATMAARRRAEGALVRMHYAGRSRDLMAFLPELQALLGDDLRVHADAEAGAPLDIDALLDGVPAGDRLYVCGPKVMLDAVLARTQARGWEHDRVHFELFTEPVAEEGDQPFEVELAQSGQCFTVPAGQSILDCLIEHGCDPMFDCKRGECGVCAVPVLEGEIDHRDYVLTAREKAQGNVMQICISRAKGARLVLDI
Experimental: In vitro assay was performed to test the capability of IadC/D/E enzymes encoded by the iad operon in transforming IAA and analogs. The reaction mixture was composed of 100 mM Tris-HCl (pH7.5), 250 μM reduced NADH, 10 μM ammonium iron (II) sulfate, and 3 μM of each enzyme component. […] The mixture was vortexed periodically to introduce oxygen for the reaction and was boiled to stop the reaction. After pelleting the precipitants, the supernatant was collected and mixed with 2 volumes of Salkowski reagent made of 0.5 M ferric chloride and 35% perchloric acid for the quantification of residual substrate by measuring the adsorption at 530 nm.

IadK3, sequence (A0A0H2LZ84 entry or part of it): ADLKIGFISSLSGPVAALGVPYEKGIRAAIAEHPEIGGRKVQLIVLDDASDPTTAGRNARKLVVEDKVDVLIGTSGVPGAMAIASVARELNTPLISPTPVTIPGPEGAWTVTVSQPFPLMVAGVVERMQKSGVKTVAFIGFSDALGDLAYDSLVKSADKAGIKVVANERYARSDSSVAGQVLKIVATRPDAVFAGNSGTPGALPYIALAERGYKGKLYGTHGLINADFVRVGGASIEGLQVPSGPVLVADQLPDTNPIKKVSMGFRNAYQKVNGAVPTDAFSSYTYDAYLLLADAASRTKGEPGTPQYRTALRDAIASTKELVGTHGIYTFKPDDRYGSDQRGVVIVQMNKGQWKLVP

SMILES: O=C(O)Cc1c[nH]c2ccccc12 [IAA, indole-3-acetic acid]
- Kd (IadK3; IadK3, ITC, replicates, read-out: ITC binding): > 100 µM
- binding to IadK3 (ITC) (IadK3; result in words): no obvious binding
- IAA binding (ITC) (IadG): no binding detected
- Kd (IadG; ITC, replicates): > 100 µM
- Tm change with IAA (TSA) (IadK2 mutants; IadK2 A125G): 2.99 and 2.492 and 3.488
- Tm change with IAA (TSA) (IadK2 mutants; IadK2 A125T/N126P): 1.993 and 1.495 (2×)
- Tm change with IAA (TSA) (IadK2 mutants; IadK2 A249G): 3.986 and 4.485 and 5.4814
- Tm change with IAA (TSA) (IadK2 mutants; IadK2 F168G): 0.4983
- Tm change with IAA (TSA) (IadK2 mutants; IadK2 F308G): 1.495
- Tm change with IAA (TSA) (IadK2 mutants; IadK2 H248G): 2.492 (2×) and 3.488
- Tm change with IAA (TSA) (IadK2 mutants; IadK2 N126A): 3.488 (2×) and 2.99
- Tm change with IAA (TSA) (IadK2 mutants; IadK2 R199A): 0.4983 and 0 (2×)
- Tm change with IAA (TSA) (IadK2 mutants; IadK2 S014V/W172L): 0
- Tm change with IAA (TSA) (IadK2 mutants; IadK2 S104A): 2.99 and 2.492 and 3.488
- Tm change with IAA (TSA) (IadK2 mutants; IadK2 S104V): 2.492 and 1.495 and 1.993
- Tm change with IAA (TSA) (IadK2 mutants; IadK2 S224A): 2.99 and 3.986 (2×)
- Tm change with IAA (TSA) (IadK2 mutants; IadK2 W172A): 0.4983 and 0 (2×)
- Tm change with IAA (TSA) (IadK2 mutants; IadK2 W172L): 0
- Tm change with IAA (TSA) (IadK2 mutants; IadK2 Y311A): 0
- transformation by IadC alone (IadC): neither IadD/E nor IadC alone could catalyze the transformation
